Data as given in ChEMBL document CHEMBL4507302, “Data for DCP probe TP-020” (2021).

Columns and labels:
[1] = molecular target: Calcium/calmodulin-dependent protein kinase type II subunit alpha (Homo sapiens) (UniProt Q9UQM7); conditions: Compound concentration 1000.0 nM
[2] = molecular target: Myosin light chain kinase family member 4 (Homo sapiens) (UniProt Q86YV6); conditions: Compound concentration 1000.0 nM
[3] = test system: Epidermal growth factor receptor (Homo sapiens), P00533 [T790M]; conditions: Compound concentration 1000.0 nM
[4] = molecular target: Dual specificity protein kinase TTK (Homo sapiens) (UniProt P33981); conditions: Compound concentration 1000.0 nM
[5] = molecular target: Dual specificity tyrosine-phosphorylation-regulated kinase 2 (Homo sapiens) (UniProt Q92630); conditions: Compound concentration 1000.0 nM
[6] = molecular target: Serine/threonine-protein kinase STK11 (Homo sapiens) (UniProt Q15831); conditions: Compound concentration 1000.0 nM
[7] = test system: Leucine-rich repeat serine/threonine-protein kinase 2 (Homo sapiens), Q5S007 [G2019S]; conditions: Compound concentration 1000.0 nM
[8] = molecular target: Serine/threonine-protein kinase ULK3 (Homo sapiens) (UniProt Q6PHR2); conditions: Compound concentration 1000.0 nM
[9] = molecular target: Cyclin-G-associated kinase (Homo sapiens) (UniProt O14976); conditions: Compound concentration 1000.0 nM
[10] = molecular target: Mitogen-activated protein kinase 11 (Homo sapiens) (UniProt Q15759); conditions: Compound concentration 1000.0 nM
[11] = molecular target: Activin receptor type-2A (Homo sapiens) (UniProt P27037); conditions: Compound concentration 1000.0 nM
[12] = molecular target: Histamine H1 receptor (Homo sapiens) (UniProt P35367); conditions: Compound concentration 10.0 uM
[13] = molecular target: Mitogen-activated protein kinase 15 (Homo sapiens) (UniProt Q8TD08); conditions: Compound concentration 1000.0 nM
[14] = molecular target: Serine/threonine-protein kinase PAK 6 (Homo sapiens) (UniProt Q9NQU5); conditions: Compound concentration 1000.0 nM
[15] = molecular target: Serine/threonine-protein kinase PLK4 (Homo sapiens) (UniProt O00444); conditions: Compound concentration 1000.0 nM
[16] = molecular target: Beta-2 adrenergic receptor (Homo sapiens) (UniProt P07550); conditions: Compound concentration 10.0 uM
[17] = molecular target: Mitogen-activated protein kinase kinase kinase 9 (Homo sapiens) (UniProt P80192); conditions: Compound concentration 1000.0 nM
[18] = molecular target: Macrophage colony-stimulating factor 1 receptor (Homo sapiens) (UniProt P07333); conditions: Compound concentration 1000.0 nM
[19] = molecular target: Serine/threonine-protein kinase RIO1 (Homo sapiens) (UniProt Q9BRS2); conditions: Compound concentration 1000.0 nM
[20] = molecular target: Mitogen-activated protein kinase 3 (Homo sapiens) (UniProt P27361); conditions: Compound concentration 1000.0 nM
[21] = molecular target: Serine/threonine-protein kinase PAK 3 (Homo sapiens) (UniProt O75914); conditions: Compound concentration 1000.0 nM
[22] = molecular target: Protein-tyrosine kinase 6 (Homo sapiens) (UniProt Q13882); conditions: Compound concentration 1000.0 nM
[23] = molecular target: Proto-oncogene tyrosine-protein kinase receptor Ret (Homo sapiens) (UniProt P07949); conditions: Compound concentration 1000.0 nM
[24] = molecular target: Serine/threonine-protein kinase RIO2 (Homo sapiens) (UniProt Q9BVS4); conditions: Compound concentration 1000.0 nM
[25] = test system: Epidermal growth factor receptor (Homo sapiens), P00533 [L858R]; conditions: Compound concentration 1000.0 nM
[26] = molecular target: Muscarinic acetylcholine receptor M5 (Homo sapiens) (UniProt P08912); conditions: Compound concentration 10.0 uM
[27] = molecular target: Kappa-type opioid receptor (Homo sapiens) (UniProt P41145); conditions: Compound concentration 10.0 uM
[28] = molecular target: Receptor-interacting serine/threonine-protein kinase 4 (Homo sapiens) (UniProt P57078); conditions: Compound concentration 1000.0 nM
[29] = molecular target: Cyclin-dependent kinase 15 (Homo sapiens) (UniProt Q96Q40); conditions: Compound concentration 1000.0 nM
[30] = molecular target: RAC-alpha serine/threonine-protein kinase (Homo sapiens) (UniProt P31749); conditions: Compound concentration 1000.0 nM
[31] = molecular target: Serine/threonine-protein kinase 38 (Homo sapiens) (UniProt Q15208); conditions: Compound concentration 1000.0 nM
[32] = molecular target: Myosin light chain kinase 2, skeletal/cardiac muscle (Homo sapiens) (UniProt Q9H1R3); conditions: Compound concentration 1000.0 nM
[33] = molecular target: Fibroblast growth factor receptor 4 (Homo sapiens) (UniProt P22455); conditions: Compound concentration 1000.0 nM
[34] = molecular target: Cyclin-dependent kinase 4 (Homo sapiens) (UniProt P11802); conditions: Compound concentration 1000.0 nM
[35] = molecular target: Tyrosine-protein kinase JAK3 (Homo sapiens) (UniProt P52333); conditions: Compound concentration 1000.0 nM
[36] = molecular target: BDNF/NT-3 growth factors receptor (Homo sapiens) (UniProt Q16620); conditions: Compound concentration 1000.0 nM
[37] = test system: Epidermal growth factor receptor (Homo sapiens), P00533 [UNDEFINED MUTATION]; conditions: Compound concentration 1000.0 nM
[38] = molecular target: Ephrin type-A receptor 4 (Homo sapiens) (UniProt P54764); conditions: Compound concentration 1000.0 nM
[39] = molecular target: Ribosomal protein S6 kinase alpha-3 (Homo sapiens) (UniProt P51812); conditions: Compound concentration 1000.0 nM
[40] = molecular target: Ankyrin repeat and protein kinase domain-containing protein 1 (Homo sapiens) (UniProt Q8NFD2); conditions: Compound concentration 1000.0 nM
[41] = molecular target: Wee1-like protein kinase (Homo sapiens) (UniProt P30291); conditions: Compound concentration 1000.0 nM
[42] = molecular target: Cyclin-dependent kinase 5 (Homo sapiens) (UniProt Q00535); conditions: Compound concentration 1000.0 nM
[43] = molecular target: Maternal embryonic leucine zipper kinase (Homo sapiens) (UniProt Q14680); conditions: Compound concentration 1000.0 nM
[44] = molecular target: Atypical kinase COQ8A, mitochondrial (Homo sapiens) (UniProt Q8NI60); conditions: Compound concentration 1000.0 nM
[45] = molecular target: SNF-related serine/threonine-protein kinase (Homo sapiens) (UniProt Q9NRH2); conditions: Compound concentration 1000.0 nM

Sequence of Leucine-rich repeat serine/threonine-protein kinase 2 (Homo sapiens), Q5S007 [G2019S] (Q5S007 whole entry G2019S): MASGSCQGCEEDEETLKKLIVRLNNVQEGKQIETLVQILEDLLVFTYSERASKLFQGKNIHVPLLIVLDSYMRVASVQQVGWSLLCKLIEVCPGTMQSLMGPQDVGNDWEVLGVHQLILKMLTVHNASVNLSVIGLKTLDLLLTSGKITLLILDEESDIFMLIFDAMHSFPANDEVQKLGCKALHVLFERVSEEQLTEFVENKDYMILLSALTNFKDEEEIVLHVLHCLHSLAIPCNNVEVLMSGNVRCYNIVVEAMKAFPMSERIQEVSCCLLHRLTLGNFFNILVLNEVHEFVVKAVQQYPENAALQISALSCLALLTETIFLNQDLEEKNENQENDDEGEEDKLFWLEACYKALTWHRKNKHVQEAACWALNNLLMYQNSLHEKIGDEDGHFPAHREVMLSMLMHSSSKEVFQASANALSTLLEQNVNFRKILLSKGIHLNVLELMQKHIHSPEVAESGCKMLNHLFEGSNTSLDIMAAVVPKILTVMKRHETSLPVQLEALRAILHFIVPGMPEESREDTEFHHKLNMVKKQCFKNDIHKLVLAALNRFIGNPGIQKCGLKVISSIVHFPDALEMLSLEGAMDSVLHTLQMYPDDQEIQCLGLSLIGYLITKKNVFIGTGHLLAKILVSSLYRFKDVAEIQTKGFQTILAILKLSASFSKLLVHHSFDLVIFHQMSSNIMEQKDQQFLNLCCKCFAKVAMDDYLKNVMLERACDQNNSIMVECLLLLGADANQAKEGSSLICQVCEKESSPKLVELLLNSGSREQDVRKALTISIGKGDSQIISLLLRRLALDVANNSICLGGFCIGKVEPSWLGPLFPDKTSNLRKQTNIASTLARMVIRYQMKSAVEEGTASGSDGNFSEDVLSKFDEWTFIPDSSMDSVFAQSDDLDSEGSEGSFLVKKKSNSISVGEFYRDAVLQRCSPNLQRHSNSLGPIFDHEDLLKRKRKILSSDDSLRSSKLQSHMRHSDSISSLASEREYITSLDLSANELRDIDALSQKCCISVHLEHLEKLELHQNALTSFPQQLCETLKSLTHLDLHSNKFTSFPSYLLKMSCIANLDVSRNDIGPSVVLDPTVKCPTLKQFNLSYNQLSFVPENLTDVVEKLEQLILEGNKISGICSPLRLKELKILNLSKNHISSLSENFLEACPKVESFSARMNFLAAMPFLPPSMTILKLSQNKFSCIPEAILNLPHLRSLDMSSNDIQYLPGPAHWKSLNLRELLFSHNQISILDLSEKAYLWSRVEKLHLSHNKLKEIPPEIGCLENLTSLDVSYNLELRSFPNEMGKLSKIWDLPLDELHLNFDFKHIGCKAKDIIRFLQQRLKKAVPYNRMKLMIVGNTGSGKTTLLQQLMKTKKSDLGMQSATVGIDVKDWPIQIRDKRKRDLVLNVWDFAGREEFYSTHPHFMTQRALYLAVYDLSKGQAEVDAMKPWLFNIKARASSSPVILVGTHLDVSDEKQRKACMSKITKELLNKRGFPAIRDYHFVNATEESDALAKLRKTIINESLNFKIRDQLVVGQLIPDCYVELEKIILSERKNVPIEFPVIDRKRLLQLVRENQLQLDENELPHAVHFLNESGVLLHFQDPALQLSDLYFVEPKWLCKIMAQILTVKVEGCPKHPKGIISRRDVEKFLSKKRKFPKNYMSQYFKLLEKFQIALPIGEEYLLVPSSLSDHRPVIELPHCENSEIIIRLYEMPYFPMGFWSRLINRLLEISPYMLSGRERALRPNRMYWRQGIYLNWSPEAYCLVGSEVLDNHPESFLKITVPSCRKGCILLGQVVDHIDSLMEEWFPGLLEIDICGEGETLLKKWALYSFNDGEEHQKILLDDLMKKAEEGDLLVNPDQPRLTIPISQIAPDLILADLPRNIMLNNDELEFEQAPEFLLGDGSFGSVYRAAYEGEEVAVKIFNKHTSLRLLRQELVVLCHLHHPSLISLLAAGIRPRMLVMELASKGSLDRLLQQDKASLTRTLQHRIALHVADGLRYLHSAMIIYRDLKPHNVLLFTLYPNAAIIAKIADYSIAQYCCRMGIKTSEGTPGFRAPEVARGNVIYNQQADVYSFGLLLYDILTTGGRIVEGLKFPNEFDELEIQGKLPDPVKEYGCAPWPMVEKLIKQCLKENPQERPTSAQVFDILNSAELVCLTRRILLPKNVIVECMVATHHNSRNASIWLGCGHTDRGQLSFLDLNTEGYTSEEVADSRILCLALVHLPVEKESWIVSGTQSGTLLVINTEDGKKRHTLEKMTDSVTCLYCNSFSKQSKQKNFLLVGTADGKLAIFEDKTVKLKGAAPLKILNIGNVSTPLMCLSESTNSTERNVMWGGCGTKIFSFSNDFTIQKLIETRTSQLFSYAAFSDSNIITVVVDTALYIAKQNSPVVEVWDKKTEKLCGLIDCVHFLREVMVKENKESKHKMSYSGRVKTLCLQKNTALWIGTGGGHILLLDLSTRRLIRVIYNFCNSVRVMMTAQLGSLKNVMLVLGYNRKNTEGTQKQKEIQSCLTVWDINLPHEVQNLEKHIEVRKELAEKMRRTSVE
Sequence of Dual specificity tyrosine-phosphorylation-regulated kinase 2 (Homo sapiens) (Q92630 whole entry): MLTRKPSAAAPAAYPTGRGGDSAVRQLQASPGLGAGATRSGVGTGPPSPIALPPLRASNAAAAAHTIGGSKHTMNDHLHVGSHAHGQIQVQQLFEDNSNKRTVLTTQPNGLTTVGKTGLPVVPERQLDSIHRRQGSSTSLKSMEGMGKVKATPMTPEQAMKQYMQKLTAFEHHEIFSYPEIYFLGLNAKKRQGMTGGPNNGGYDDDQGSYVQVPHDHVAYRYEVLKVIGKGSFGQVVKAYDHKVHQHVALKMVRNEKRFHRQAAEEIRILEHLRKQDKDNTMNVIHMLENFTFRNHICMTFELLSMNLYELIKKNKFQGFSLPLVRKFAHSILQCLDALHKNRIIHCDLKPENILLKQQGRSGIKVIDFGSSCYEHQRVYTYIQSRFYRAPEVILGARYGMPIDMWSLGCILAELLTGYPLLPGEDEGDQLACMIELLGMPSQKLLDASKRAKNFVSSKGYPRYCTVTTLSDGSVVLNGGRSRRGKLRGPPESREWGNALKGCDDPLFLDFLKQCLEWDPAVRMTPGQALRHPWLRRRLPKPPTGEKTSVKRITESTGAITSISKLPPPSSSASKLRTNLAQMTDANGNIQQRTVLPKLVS
Sequence of Serine/threonine-protein kinase RIO2 (Homo sapiens) (Q9BVS4 whole entry, looked up): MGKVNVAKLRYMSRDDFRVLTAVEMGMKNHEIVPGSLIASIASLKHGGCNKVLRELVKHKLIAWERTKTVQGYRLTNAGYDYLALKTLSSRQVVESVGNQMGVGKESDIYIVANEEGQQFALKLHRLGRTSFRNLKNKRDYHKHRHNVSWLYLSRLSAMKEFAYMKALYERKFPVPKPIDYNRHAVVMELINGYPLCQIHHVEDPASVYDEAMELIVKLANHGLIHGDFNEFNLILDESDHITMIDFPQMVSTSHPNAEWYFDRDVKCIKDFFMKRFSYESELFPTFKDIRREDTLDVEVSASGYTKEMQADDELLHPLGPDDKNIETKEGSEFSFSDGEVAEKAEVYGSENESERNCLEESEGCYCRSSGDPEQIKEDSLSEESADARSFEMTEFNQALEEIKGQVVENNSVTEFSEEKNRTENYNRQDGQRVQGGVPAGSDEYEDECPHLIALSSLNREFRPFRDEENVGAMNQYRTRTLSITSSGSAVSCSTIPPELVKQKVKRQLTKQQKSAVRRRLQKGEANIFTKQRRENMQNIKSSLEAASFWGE
Sequence of Cyclin-G-associated kinase (Homo sapiens) (O14976 whole entry): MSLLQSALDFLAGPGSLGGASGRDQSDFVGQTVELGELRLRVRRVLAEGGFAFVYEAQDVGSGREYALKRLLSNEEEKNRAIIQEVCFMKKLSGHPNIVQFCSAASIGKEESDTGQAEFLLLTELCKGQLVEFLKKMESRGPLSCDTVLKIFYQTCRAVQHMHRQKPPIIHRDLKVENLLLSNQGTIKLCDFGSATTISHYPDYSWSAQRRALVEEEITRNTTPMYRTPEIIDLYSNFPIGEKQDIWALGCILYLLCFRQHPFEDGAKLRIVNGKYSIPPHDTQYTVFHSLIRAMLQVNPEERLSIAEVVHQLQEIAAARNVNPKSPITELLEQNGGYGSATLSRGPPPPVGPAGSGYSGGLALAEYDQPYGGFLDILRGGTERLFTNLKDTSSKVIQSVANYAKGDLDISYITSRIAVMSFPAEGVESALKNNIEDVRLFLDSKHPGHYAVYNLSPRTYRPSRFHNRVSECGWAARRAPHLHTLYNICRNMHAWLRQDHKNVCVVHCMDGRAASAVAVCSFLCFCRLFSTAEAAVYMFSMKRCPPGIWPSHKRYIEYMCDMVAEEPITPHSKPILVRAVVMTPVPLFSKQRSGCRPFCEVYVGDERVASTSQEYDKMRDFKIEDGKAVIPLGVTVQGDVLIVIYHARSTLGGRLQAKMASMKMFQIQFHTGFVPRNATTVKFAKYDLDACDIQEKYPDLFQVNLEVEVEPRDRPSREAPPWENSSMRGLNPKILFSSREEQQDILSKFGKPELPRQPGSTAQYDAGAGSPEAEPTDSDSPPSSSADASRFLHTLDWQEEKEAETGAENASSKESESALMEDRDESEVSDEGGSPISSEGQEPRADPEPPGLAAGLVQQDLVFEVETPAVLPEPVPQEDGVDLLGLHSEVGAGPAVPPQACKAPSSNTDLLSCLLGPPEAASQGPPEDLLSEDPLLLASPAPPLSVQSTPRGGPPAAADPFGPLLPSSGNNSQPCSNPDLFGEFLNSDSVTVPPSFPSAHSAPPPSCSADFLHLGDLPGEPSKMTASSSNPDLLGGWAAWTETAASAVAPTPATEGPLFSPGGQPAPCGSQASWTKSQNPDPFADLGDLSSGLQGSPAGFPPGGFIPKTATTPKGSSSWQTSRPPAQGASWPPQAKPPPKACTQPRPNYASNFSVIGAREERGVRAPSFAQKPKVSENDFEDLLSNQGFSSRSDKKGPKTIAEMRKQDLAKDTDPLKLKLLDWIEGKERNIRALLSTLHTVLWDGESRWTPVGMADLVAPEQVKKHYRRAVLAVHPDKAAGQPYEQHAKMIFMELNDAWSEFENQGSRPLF

Cn1nc(C(F)(F)F)cc1-c1cnc(N2CCc3cc(S(=O)(=O)Nc4c(F)cc(Cl)cc4F)cc(N4CCCC4=O)c32)nc1 [TP-020]
inactive: residual activity [1] 75% | residual activity [2] 99% | residual activity [3] 94% | residual activity [4] 97% | residual activity [5] 87% | residual activity [6] 100% | residual activity [7] 93% | residual activity [8] 100% | residual activity [9] 94% | residual activity [10] 100% | residual activity [11] 83% | inhibition [12] 10.2% | residual activity [13] 78% | residual activity [14] 100% | residual activity [15] 77% | inhibition [16] 17.4% | residual activity [17] 100% | residual activity [18] 91% | residual activity [19] 96% | residual activity [20] 100% | residual activity [21] 77% | residual activity [22] 90% | residual activity [23] 87% | residual activity [24] 89% | residual activity [25] 100% | inhibition [26] 7.43% | inhibition [27] 14.6% | residual activity [28] 67% | residual activity [29] 100% | residual activity [30] 100% | residual activity [31] 97% | residual activity [32] 100% | residual activity [33] 69% | residual activity [34] 68% | residual activity [35] 81% | residual activity [36] 75% | residual activity [37] 100% | residual activity [38] 97% | residual activity [39] 100% | residual activity [40] 96% | residual activity [41] 88% | residual activity [42] 100% | residual activity [43] 100% | residual activity [44] 100% | residual activity [45] 87%

Nc1cnc(N2CCc3cc(S(=O)(=O)Nc4c(F)cc(Cl)cc4F)cc(N4CCCC4=O)c32)nc1
inactive: residual activity [1] 92% | residual activity [2] 100% | residual activity [3] 88% | residual activity [4] 90% | residual activity [5] 89% | residual activity [6] 100% | residual activity [7] 81% | residual activity [8] 100% | residual activity [9] 100% | residual activity [10] 100% | residual activity [11] 67% | inhibition [12] -2.69% | residual activity [13] 84% | residual activity [14] 100% | residual activity [15] 100% | inhibition [16] -3.08% | residual activity [17] 100% | residual activity [18] 100% | residual activity [19] 100% | residual activity [20] 91% | residual activity [21] 100% | residual activity [22] 100% | residual activity [23] 89% | residual activity [24] 89% | residual activity [25] 85% | inhibition [26] 1.45% | inhibition [27] 14.9% | residual activity [28] 76% | residual activity [29] 80% | residual activity [30] 100% | residual activity [31] 99% | residual activity [32] 87% | residual activity [33] 100% | residual activity [34] 97% | residual activity [35] 100% | residual activity [36] 100% | residual activity [37] 100% | residual activity [38] 100% | residual activity [39] 84% | residual activity [40] 100% | residual activity [41] 72% | residual activity [42] 100% | residual activity [43] 90% | residual activity [44] 100% | residual activity [45] 100%
